{
  "source": "patent US12281098B2",
  "about": "“Five-membered-fused six-membered compound, preparation method, pharmaceutical composition and use” (HANGZHOU POLYMED BIOPHARMACEUTICALS, INC., priority 2021, dated 2025)",
  "data": [
    {"target": "T1, IRAK4 kinase (Homo sapiens, UniProt Q9NWZ3)", "T1 construct": "purchased Carna 09-145", "T1 sequence (Q9NWZ3 1-460)": "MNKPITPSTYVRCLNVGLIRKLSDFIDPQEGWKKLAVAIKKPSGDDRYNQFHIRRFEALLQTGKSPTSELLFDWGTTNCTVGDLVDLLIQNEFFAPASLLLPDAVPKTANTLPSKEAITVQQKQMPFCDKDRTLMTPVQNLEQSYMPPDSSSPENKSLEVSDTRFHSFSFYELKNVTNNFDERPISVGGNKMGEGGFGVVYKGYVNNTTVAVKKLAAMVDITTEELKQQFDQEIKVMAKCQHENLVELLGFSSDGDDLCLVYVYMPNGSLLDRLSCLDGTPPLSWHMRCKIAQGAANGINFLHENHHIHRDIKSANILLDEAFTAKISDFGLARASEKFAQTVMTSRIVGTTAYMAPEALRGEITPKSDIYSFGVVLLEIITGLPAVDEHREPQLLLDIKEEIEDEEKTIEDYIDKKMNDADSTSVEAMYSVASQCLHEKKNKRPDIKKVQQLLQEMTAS", "assay": "Compound inhibition of IRAK4 kinase activity (fluorescence microfluidic mobility shift assay)", "assay_type": "biochemical", "conditions": "Table 1; 10 μM ATP, 6 nM IRAK4 kinase", "description": "(§1) Based on the experimental method of fluorescence microfluidic mobility shift assay, the IC50 value of the compound for competitive binding of ATP to IRAK4 kinase was determined. The initial detection concentration of the compound was 10 μM, which was 4-fold serially diluted to 0.38 nM and assayed in duplicate. In this case, commercially available staurosporine was the standard control for the assay.\n(§2) 1) IRAK4 kinase was dissolved in kinase buffer (50 mM HEPES pH 7.5, 10 mM MgCl2, 2 mM DDT, and 0.01% Brij-35) at a final concentration of 6 nM.\n(§3) 2) The substrate peptide FAM-P8 and ATP were dissolved in the above kinase buffer, and the final concentrations of the substrate peptide FAM-P8 and ATP for IRAK4 were 3 μM and 10 μM, respectively.\n(§4) 3) Compound dilution: The compound was first diluted to 50 μM, and then 4-fold serially diluted with DMSO. In this case, the solution without compound and kinase served as the blank control, corresponding to the “minimum value” shown below; the solution without compound but containing kinase, adenosine 5′-triphosphate disodium salt hydrate, DMSO, and the buffer served as the positive control, corresponding to the “maximum value” shown below.\n(§5) 4) Kinase reaction and termination: 10 μL of the kinase buffer was added to a 384-well plate containing 5 μL of the compound to be tested, and the mixture was incubated at room temperature for 10 minutes; another 10 μL of buffer containing the substrate peptide and adenosine 5′-triphosphate disodium salt hydrate was added to the 384-well plate, and after incubation at 28° C. for 1 hour, 25 μL of termination solution (100 mM HEPES pH 7.5, 50 mM EDTA, 0.2% Coating Reagent #3, and 0.015% Brij-35) was added to each well to terminate the reaction.\n(§6) 5) Data reading: CaliperEZ Reader II instrument was used to read the conversion rate data. Setting conditions: downstream voltage as −500 V, upstream voltage as −2250 V, base pressure as −0.5 PSI, and screening pressure as −1.2 PSI.\n(§7) 6) Data calculation: the conversion rate data was copied from CaliperEZ Reader II, and the conversion rate was converted into inhibition rate data. The calculation formula is as follows: Inhibition percentage (%)=(maximum value−conversion rate)/(maximum value−minimum value)*100%\n(§8) IC50 values were fitted with XLFit excel add-in version 5.4.0.8.", "units": {"IC50": "nM"}, "values": [
      {"smiles": "CC(C)(O)c1cc2nn(CCN3CCN(CC(=O)NC4CCN(c5cccc6c5C(=O)N(C5CCC(=O)NC5=O)C6=O)CC4)C3=O)cc2cc1NC(=O)c1cccc(C(F)(F)F)n1", "note": "(stereo not shown) [III-13]", "IC50": "100 to 1000"},
      {"smiles": "O=C(CCCN1Cc2cc(NC(=O)c3cccc(C(F)(F)F)n3)c(Br)cc2C1=O)NCCOCCOCCNc1cccc2c1C(=O)N(C1CCC(=O)NC1=O)C2=O", "note": "(stereo not shown) [III-1]", "IC50": "≥ 10000"},
      {"smiles": "Cc1ncsc1-c1ccc([C@H](C)NC(=O)C2C[C@@H](O)CN2C(=O)[C@@H](NC(=O)COCCNC(=O)CN2CCN(CCn3cc4cc(NC(=O)c5cccc(C(F)(F)F)n5)c(C(C)(C)O)cc4n3)C2=O)C(C)(C)C)cc1", "note": "(stereo partly shown) [III-15]", "IC50": "100 to 1000"},
      {"smiles": "CC(C)(O)c1cc2nn(CCN3CCN(CC(=O)N4CC5(CCN(c6cccc7c6C(=O)N(C6CCC(=O)NC6=O)C7=O)CC5)C4)C3=O)cc2cc1NC(=O)c1cccc(C(F)(F)F)n1", "note": "(stereo not shown) [III-12]", "IC50": "100 to 1000"},
      {"smiles": "O=C1CCC(N2C(=O)c3cccc(NCCOCCOCCOCCN4Cc5cc(NC(=O)c6cccc(C(F)(F)F)n6)c(Br)cc5C4=O)c3C2=O)C(=O)N1", "note": "(stereo not shown) [III-4]", "IC50": "1000 to 10000"},
      {"smiles": "CC(C)(O)c1cc2nn(CCN3CCN(CC(=O)N4CCN(c5cccc6c5C(=O)N(C5CCC(=O)NC5=O)C6=O)CC4)C3=O)cc2cc1NC(=O)c1cccc(C(F)(F)F)n1", "note": "(stereo not shown) [III-14]", "IC50": "100 to 1000"}
    ]},
    {"target": "T1, IRAK4 kinase", "assay": "Compound inhibition of IRAK4 kinase activity (fluorescence microfluidic mobility shift assay)", "assay_type": "biochemical", "conditions": "Table 2; 10 μM ATP, 6 nM IRAK4 kinase", "description": "as §1, §2, §3, §4, §5, §6, §7, §8", "units": {"IC50": "nM"}, "values": [
      {"smiles": "COc1cc2c(cc1NC(=O)c1cccc(C(F)(F)F)n1)CN(CCN1CCN(CC(=O)N3CCC4(CCC(C(=O)NC(C(=O)N5CC(O)CC5C(=O)NC(C)c5ccc(-c6scnc6C)cc5)C(C)(C)C)CC4)CC3)CC1)C2=O", "note": "(stereo not shown) [III-43]", "IC50": "100 to 1000"},
      {"smiles": "CC(C)Oc1cc2nn(CCN3CCN(CC(=O)N4CCC5(CC4)CCN(c4cccc6c4C(=O)N(C4CCC(=O)NC4=O)C6=O)CC5)CC3)cc2cc1NC(=O)c1cccc(C(F)(F)F)n1", "note": "(stereo not shown) [III-51]", "IC50": "< 100"},
      {"smiles": "COc1cc2nn(CCC3CCN(CC(=O)N4CCC5(CCC(C(=O)N[C@H](C(=O)N6C[C@H](O)C[C@H]6C(=O)N[C@@H](C)c6ccc(-c7scnc7C)cc6)C(C)(C)C)CC5)CC4)CC3)cc2cc1NC(=O)c1cccc(C(F)(F)F)n1", "note": "[III-68]", "IC50": "< 100"},
      {"smiles": "Cc1ncsc1-c1ccc([C@H](C)NC(=O)[C@@H]2C[C@@H](O)CN2C(=O)[C@@H](NC(=O)C2CCC3(CC2)CCN(C(=O)CN2CCN(CCn4cc5cc(NC(=O)c6cccc(C(F)(F)F)n6)c(OC(C)C)cc5n4)CC2)CC3)C(C)(C)C)cc1", "note": "[III-57]", "IC50": "< 100"},
      {"smiles": "COc1cc2nn(CCC3CCN(CC(=O)N4CCC5(CC4)CCN(c4cccc6c4C(=O)N(C4CCC(=O)NC4=O)C6=O)CC5)CC3)cc2cc1NC(=O)c1cccc(C(F)(F)F)n1", "note": "(stereo not shown) [III-66]", "IC50": "< 100"},
      {"smiles": "CC(C)(O)c1cc2nn(CCN3CCN(CC(=O)NC4CCN(c5cccc6c5C(=O)N(C5CCC(=O)NC5=O)C6=O)CC4)C3=O)cc2cc1NC(=O)c1cccc(C(F)(F)F)n1", "note": "(stereo not shown) [III-13]", "IC50": "100 to 1000"},
      {"smiles": "COc1cc2nn(CCN3CCN(C4CCC5(CC4)CCN(c4cccc6c4C(=O)N(C4CCC(=O)NC4=O)C6=O)CC5)CC3)cc2cc1NC(=O)c1cccc(C(F)(F)F)n1", "note": "(stereo not shown) [III-40]", "IC50": "< 100"},
      {"smiles": "O=C1CCC(N2C(=O)c3cccc(N4CCC5(CCN(C(=O)CN6CCN(CCn7cc8cc(NC(=O)c9cccc(C(F)(F)F)n9)c(OC(F)(F)F)cc8n7)CC6)CC5)CC4)c3C2=O)C(=O)N1", "note": "(stereo not shown) [III-73]", "IC50": "100 to 1000"},
      {"smiles": "O=C(CCCN1Cc2cc(NC(=O)c3cccc(C(F)(F)F)n3)c(Br)cc2C1=O)NCCOCCOCCNc1cccc2c1C(=O)N(C1CCC(=O)NC1=O)C2=O", "note": "(stereo not shown) [III-1]", "IC50": "≥ 10000"},
      {"smiles": "COc1cc2nn(CCN3CCN(CC(=O)N4CCC5(CC4)CCN(c4cccc6c4C(=O)N(C4CCC(=O)NC4=O)C6=O)CC5)[C@H](C)C3)cc2cc1NC(=O)c1cccc(C(F)(F)F)n1", "note": "(stereo partly shown) [III-45]", "IC50": "< 100"},
      {"smiles": "CC(C)(O)c1cc2nn(CCN3CCN(CC(=O)N4CCC5(CC4)CCN(c4cccc6c4C(=O)N(C4CCC(=O)NC4=O)C6=O)CC5)CC3)cc2cc1NC(=O)c1cccc(C(F)(F)F)n1", "note": "(stereo not shown) [III-50]", "IC50": "< 100"},
      {"smiles": "COc1cc2c(cc1NC(=O)c1cccc(C(F)(F)F)n1)CN(CCC(C)(C)C(=O)N1CCC3(CC1)CCN(c1ncc(Nc4cccc5c4C(=O)N(C4CCC(=O)NC4=O)C5=O)cn1)CC3)C2=O", "note": "(stereo not shown) [III-33]", "IC50": "100 to 1000"},
      {"smiles": "Cc1ncsc1-c1ccc([C@H](C)NC(=O)C2C[C@@H](O)CN2C(=O)[C@@H](NC(=O)COCCNC(=O)CN2CCN(CCn3cc4cc(NC(=O)c5cccc(C(F)(F)F)n5)c(C(C)(C)O)cc4n3)C2=O)C(C)(C)C)cc1", "note": "(stereo partly shown) [III-15]", "IC50": "100 to 1000"},
      {"smiles": "CC(C)(O)c1cc2nn(CCN3CCN(CC(=O)N4CC5(CCN(c6cccc7c6C(=O)N(C6CCC(=O)NC6=O)C7=O)CC5)C4)C3=O)cc2cc1NC(=O)c1cccc(C(F)(F)F)n1", "note": "(stereo not shown) [III-12]", "IC50": "100 to 1000"},
      {"smiles": "O=C1CCC(N2C(=O)c3cccc(NCCOCCOCCOCCN4Cc5cc(NC(=O)c6cccc(C(F)(F)F)n6)c(Br)cc5C4=O)c3C2=O)C(=O)N1", "note": "(stereo not shown) [III-4]", "IC50": "1000 to 10000"},
      {"smiles": "CC(C)(O)c1cc2nn(CCN3CCN(CC(=O)N4CCN(c5cccc6c5C(=O)N(C5CCC(=O)NC5=O)C6=O)CC4)C3=O)cc2cc1NC(=O)c1cccc(C(F)(F)F)n1", "note": "(stereo not shown) [III-14]", "IC50": "100 to 1000"}
    ]}
  ]
}
